In PMC11062899, “De novo development of small cyclic peptides that are orally bioavailable” (Nature Chemical Biology, 2023):
Values joined by “and” are separate entries in the source; they are usually repeats but may differ in a detail not shown here. Equal entries are not always repeated.

Assays:
[1] = Passive artificial membrane permeability (PAMPA);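 as to Permeability% Average: top well sample relative to theoretical equilibrium sample by TIC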
[2] = molecular target: T1, porcine pepsin (Sus scrofa, UniProt P00791); experiment: Peptide stability in simulated gastric fluid (SGF); type: in vitro ADME; conditions: pig, simulated gi fluid; 8 h, 37 °C, pH 1.2; read-out: Proteolytic stability: SGF (8 h) % remaining
T1 construct: 0.32 g of porcine pepsin (Sigma-Aldrich, P7125) was dissolved under gentle agitation; purchased Sigma-Aldrich P7125
Outline: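 Peptide from a 1 mM DMSO stock was added to fluid pre-warmed at 37 °C. SGF was pH 1.2 NaCl with porcine pepsin (0.32 g per 100 ml), and SIF was pH 6.8 potassium phosphate with porcine pancreatin (1 g per 100 ml). Supernatant peptide was quantified by LC–MS, with residual expressed as T1/T0.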

[3] = molecular target: human α-thrombin (Homo sapiens, UniProt P00734); experiment: Protease inhibition, Ki for human α-thrombin (fluorogenic substrate Z-Gly-Gly-Arg-AMC); type: biochemical; conditions: replicates R1-R3
Outline: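 Inhibition was measured as AMC fluorescence from 50 μM substrate, monitored for 30 min at 25 °C, relative to a peptide-free control. Human and rat enzymes were present at 2 nM and 3 nM final, respectively, in 50 mM Tris-HCl pH 7.4, 150 mM NaCl, 10 mM MgCl2, 1 mM CaCl2. Ki derives from fitted IC50 via Cheng–Prusoff.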

T1 sequence (P00791 60-385): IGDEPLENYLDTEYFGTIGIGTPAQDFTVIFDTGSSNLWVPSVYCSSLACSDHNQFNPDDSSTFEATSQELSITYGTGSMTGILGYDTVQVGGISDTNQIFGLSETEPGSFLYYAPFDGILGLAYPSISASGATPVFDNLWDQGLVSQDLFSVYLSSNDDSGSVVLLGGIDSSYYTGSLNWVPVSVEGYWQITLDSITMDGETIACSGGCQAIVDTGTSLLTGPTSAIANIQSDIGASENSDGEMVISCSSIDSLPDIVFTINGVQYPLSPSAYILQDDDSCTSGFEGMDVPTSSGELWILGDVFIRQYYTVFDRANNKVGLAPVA

O=C1C[C@H]2CCCN2C(=O)[C@H](Cc2ccccc2)NC(=O)[C@@H](NC(=O)c2ccc(Cl)s2)CCC=CCCCCN1 [peptide 43]
PAMPA permeability: % permeability ([1]; 50 μM, 12–18 h, acceptor concentration relative to equilibrium): 66 ± 19% | Permeability% (single replicates R1–R3) ([1]; 50 μM, 12 h (Fig. 6d)): 52.91% and 57.15% and 54.20% | Permeability% Average ([1]; 50 μM, 12 h (Fig. 6d)): 54.8% | Permeability% (single replicates R1–R3) ([1]; 50 μM, 13 h (Fig. 5d)): 79.02% and 44.84% and 74.28% | Permeability% Average ([1]; 50 μM, 13 h (Fig. 5d)): 66.0% | Papp at 50 μM ([1]; PAMPA, pH 7.4): 9.77 ×10⁻⁶ cm/s | remaining at 8 h [2]: 101 ± 12% | slope normalized to DMSO, human alpha thrombin inhibition ([3]; peptide 1.00E+02 uM): 10.6 and 8.4 (2×) | slope normalized to DMSO, human alpha thrombin inhibition ([3]; peptide 1.19E-05 uM): 106.5 and 81.0 and 107.9 | slope normalized to DMSO, human alpha thrombin inhibition ([3]; peptide 1.22E-02 uM): 62.0 and 85.6 and 70.0 | slope normalized to DMSO, human alpha thrombin inhibition ([3]; peptide 1.25E+01 uM): 12.3 and 9.9 and 11.8 | slope normalized to DMSO, human alpha thrombin inhibition ([3]; peptide 1.53E-03 uM): 95.1 and 99.7 and 102.7 | slope normalized to DMSO, human alpha thrombin inhibition ([3]; peptide 1.56E+00 uM): 18.3 and 16.9 and 22.5 | slope normalized to DMSO, human alpha thrombin inhibition ([3]; peptide 1.91E-04 uM): 119.9 and 101.0 and 100.8 | slope normalized to DMSO, human alpha thrombin inhibition ([3]; peptide 1.95E-01 uM): 42.7 and 40.6 and 41.3 | slope normalized to DMSO, human alpha thrombin inhibition ([3]; peptide 2.38E-05 uM): 106.9 and 97.9 and 102.5 | slope normalized to DMSO, human alpha thrombin inhibition ([3]; peptide 2.44E-02 uM): 46.0 and 65.3 and 70.3 | slope normalized to DMSO, human alpha thrombin inhibition ([3]; peptide 2.50E+01 uM): 11.7 and 11.0 and 8.9 | slope normalized to DMSO, human alpha thrombin inhibition ([3]; peptide 3.05E-03 uM): 106.1 and 101.5 and 67.8 | slope normalized to DMSO, human alpha thrombin inhibition ([3]; peptide 3.12E+00 uM): 3.8 and 18.2 and 18.8 | slope normalized to DMSO, human alpha thrombin inhibition ([3]; peptide 3.81E-04 uM): 102.1 and 100.1 and 93.5 | slope normalized to DMSO, human alpha thrombin inhibition ([3]; peptide 3.91E-01 uM): 14.9 and 22.0 and 10.5 | slope normalized to DMSO, human alpha thrombin inhibition ([3]; peptide 4.77E-05 uM): 101.9 and 97.6 and 92.9 | slope normalized to DMSO, human alpha thrombin inhibition ([3]; peptide 4.88E-02 uM): 73.8 and 55.8 and 60.0 | slope normalized to DMSO, human alpha thrombin inhibition ([3]; peptide 5.00E+01 uM): 9.3 and 5.3 | slope normalized to DMSO, human alpha thrombin inhibition ([3]; peptide 6.10E-03 uM): 98.4 and 93.3 and 99.0 | slope normalized to DMSO, human alpha thrombin inhibition ([3]; peptide 6.25E+00 uM): 13.3 and 15.1 and 10.3 | slope normalized to DMSO, human alpha thrombin inhibition ([3]; peptide 7.63E-04 uM): 80.8 and 91.3 and 104.9 | slope normalized to DMSO, human alpha thrombin inhibition ([3]; peptide 7.81E-01 uM): 21.2 and 22.0 (2×) | slope normalized to DMSO, human alpha thrombin inhibition ([3]; peptide 9.54E-05 uM): 101.3 and 101.9 and 107.5 | slope normalized to DMSO, human alpha thrombin inhibition ([3]; peptide 9.77E-02 uM): 65.8 and 56.8 and 59.4 | Human alpha thrombin inhibition, slope normalized to DMSO ([3]; peptide concentration 1.00E+02 uM): 10.6 and 8.4 (2×) | Human alpha thrombin inhibition, slope normalized to DMSO ([3]; peptide concentration 1.19E-05 uM): 106.5 and 81.0 and 107.9 | Human alpha thrombin inhibition, slope normalized to DMSO ([3]; peptide concentration 1.22E-02 uM): 62.0 and 85.6 and 70.0 | Human alpha thrombin inhibition, slope normalized to DMSO ([3]; peptide concentration 1.25E+01 uM): 12.3 and 9.9 and 11.8 | Human alpha thrombin inhibition, slope normalized to DMSO ([3]; peptide concentration 1.53E-03 uM): 95.1 and 99.7 and 102.7 | Human alpha thrombin inhibition, slope normalized to DMSO ([3]; peptide concentration 1.56E+00 uM): 18.3 and 16.9 and 22.5 | Human alpha thrombin inhibition, slope normalized to DMSO ([3]; peptide concentration 1.91E-04 uM): 119.9 and 101.0 and 100.8 | Human alpha thrombin inhibition, slope normalized to DMSO ([3]; peptide concentration 1.95E-01 uM): 42.7 and 40.6 and 41.3 | Human alpha thrombin inhibition, slope normalized to DMSO ([3]; peptide concentration 2.38E-05 uM): 106.9 and 97.9 and 102.5 | Human alpha thrombin inhibition, slope normalized to DMSO ([3]; peptide concentration 2.44E-02 uM): 46.0 and 65.3 and 70.3 | Human alpha thrombin inhibition, slope normalized to DMSO ([3]; peptide concentration 2.50E+01 uM): 11.7 and 11.0 and 8.9 | Human alpha thrombin inhibition, slope normalized to DMSO ([3]; peptide concentration 3.05E-03 uM): 106.1 and 101.5 and 67.8 | Human alpha thrombin inhibition, slope normalized to DMSO ([3]; peptide concentration 3.12E+00 uM): 3.8 and 18.2 and 18.8 | Human alpha thrombin inhibition, slope normalized to DMSO ([3]; peptide concentration 3.81E-04 uM): 102.1 and 100.1 and 93.5 | Human alpha thrombin inhibition, slope normalized to DMSO ([3]; peptide concentration 3.91E-01 uM): 14.9 and 22.0 and 10.5 | Human alpha thrombin inhibition, slope normalized to DMSO ([3]; peptide concentration 4.77E-05 uM): 101.9 and 97.6 and 92.9 | Human alpha thrombin inhibition, slope normalized to DMSO ([3]; peptide concentration 4.88E-02 uM): 73.8 and 55.8 and 60.0 | Human alpha thrombin inhibition, slope normalized to DMSO ([3]; peptide concentration 5.00E+01 uM): 9.3 and 5.3 | Human alpha thrombin inhibition, slope normalized to DMSO ([3]; peptide concentration 6.10E-03 uM): 98.4 and 93.3 and 99.0 | Human alpha thrombin inhibition, slope normalized to DMSO ([3]; peptide concentration 6.25E+00 uM): 13.3 and 15.1 and 10.3 | Human alpha thrombin inhibition, slope normalized to DMSO ([3]; peptide concentration 7.63E-04 uM): 80.8 and 91.3 and 104.9 | Human alpha thrombin inhibition, slope normalized to DMSO ([3]; peptide concentration 7.81E-01 uM): 21.2 and 22.0 (2×) | Human alpha thrombin inhibition, slope normalized to DMSO ([3]; peptide concentration 9.54E-05 uM): 101.3 and 101.9 and 107.5 | Human alpha thrombin inhibition, slope normalized to DMSO ([3]; peptide concentration 9.77E-02 uM): 65.8 and 56.8 and 59.4
